Literature values as cited in US20170000799A1, “ORAL PHARMACEUTICAL COMPOSITION” (LABORATORIOS DEL DR. ESTEVE, S.A., priority 2013, published 2017).

Settings: many organic solvents, including ethanol

solubility in organic solvents: low solubility
Structure (SMILES): O=C(NC[C@H]1CN(c2ccc(N3CCOCC3=O)cc2)C(=O)O1)c1ccc(Cl)s1 [Rivaroxaban, 5-Cloro-N-[2-oxo-3-[4-(3-oxomorpholin-4-yl)phenyl]-1,3-oxazolidin-5(S)-ylmethyl]-thiophene-2-carboxamide]
